The source made the active and inactive calls. The rule behind the calls is not given here.
Key:
[1] = biological target: T1, Receptor-type tyrosine-protein kinase FLT3 (Homo sapiens, UniProt P36888)
T1 sequence (P36888 whole entry): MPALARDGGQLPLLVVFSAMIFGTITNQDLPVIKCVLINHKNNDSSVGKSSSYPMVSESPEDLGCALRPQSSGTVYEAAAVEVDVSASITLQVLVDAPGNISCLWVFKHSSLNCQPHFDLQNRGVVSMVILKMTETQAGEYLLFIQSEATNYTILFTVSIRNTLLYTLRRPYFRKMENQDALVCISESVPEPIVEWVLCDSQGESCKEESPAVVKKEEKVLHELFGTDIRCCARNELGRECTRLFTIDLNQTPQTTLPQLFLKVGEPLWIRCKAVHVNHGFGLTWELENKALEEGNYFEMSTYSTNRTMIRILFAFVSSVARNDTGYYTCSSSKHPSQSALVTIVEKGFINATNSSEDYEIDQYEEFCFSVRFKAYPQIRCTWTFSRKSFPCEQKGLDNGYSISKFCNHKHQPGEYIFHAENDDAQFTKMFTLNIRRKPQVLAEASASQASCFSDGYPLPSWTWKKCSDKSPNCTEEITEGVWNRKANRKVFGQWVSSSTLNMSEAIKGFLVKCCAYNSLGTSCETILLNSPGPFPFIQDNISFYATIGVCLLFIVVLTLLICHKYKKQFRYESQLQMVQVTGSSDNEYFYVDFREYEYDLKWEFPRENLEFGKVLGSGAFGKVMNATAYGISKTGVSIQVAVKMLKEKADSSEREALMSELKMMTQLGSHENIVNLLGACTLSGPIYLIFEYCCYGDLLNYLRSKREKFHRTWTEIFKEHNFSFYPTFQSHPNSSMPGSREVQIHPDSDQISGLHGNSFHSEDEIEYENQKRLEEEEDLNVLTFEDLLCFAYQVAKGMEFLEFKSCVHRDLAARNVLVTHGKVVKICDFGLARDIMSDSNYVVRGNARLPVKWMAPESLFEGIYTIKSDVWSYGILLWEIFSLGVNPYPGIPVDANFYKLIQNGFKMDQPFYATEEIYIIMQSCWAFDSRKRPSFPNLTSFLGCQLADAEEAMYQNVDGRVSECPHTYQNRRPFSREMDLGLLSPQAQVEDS

[2] = Tmax in Sprague-Dawley rat at 5 mg/kg, po by LC-MS/MS analysis; format: ADME, organism-based; settings: in vivo
[3] = Elimination half-life in Sprague-Dawley rat at 5 mg/kg, po by LC-MS/MS analysis; format: ADME, organism-based; settings: in vivo, read-out: beta t1/2 (converted)
[4] = Plasma clearance in Sprague-Dawley rat at 5 mg/kg, po by LC-MS/MS analysis; format: ADME, organism-based
[5] = Oral bioavailability in Sprague-Dawley rat at 5 mg/kg by LC-MS/MS analysis; format: ADME, organism-based; settings: in vivo
RS4-11 = assay: Antiproliferative activity against human RS4:11 cells harboring wild-type FLT3 measured after 72 hrs by MTT assay; format: functional, cell-based; settings: RS4-11, 72 h
HL-60 = assay: Antiproliferative activity against human HL60 cells harboring wild-type FLT3 measured after 72 hrs by MTT assay; format: functional, cell-based; settings: HL-60, 72 h
MV4-11 [6] = assay: cells; settings: Homo sapiens, MV4-11, 72 h
Description: Antiproliferative activity against human MV4-11 cells harboring FLT3-ITD mutant measured after 72 hrs by MTT assay

MOLM-13 [7] = assay: cells; settings: Homo sapiens, MOLM-13, 72 h
Description: Antiproliferative activity against human MOLM13 cells harboring FLT3-ITD mutant measured after 72 hrs by MTT assay

BaF3 [8] = assay: cells; settings: Mus musculus, BaF3, 72 h
Description: Antiproliferative activity against mouse BAF3 cells harboring FLT3-ITD mutant measured after 72 hrs by MTT assay

BaF3 [9] = assay: cells; settings: Mus musculus, BaF3, 72 h; remark: listed apart in the source
Description: Antiproliferative activity against mouse BAF3 cells harboring FLT3-ITD-F691L mutant measured after 72 hrs by MTT assay

BaF3 [10] = assay: cells; settings: Mus musculus, BaF3, 72 h; remark: listed apart in the source
Description: Antiproliferative activity against mouse BAF3 cells harboring FLT3-ITD-D835V mutant measured after 72 hrs by MTT assay

MV4-11 [11] = assay: Antitumour activity against human MV4-11 cells xenografted in NOD/SCID mouse assessed as tumour growth inhibition; format: functional, cell-based
MOLM-13 [12] = assay: Antitumour activity against human MOLM13 cells xenografted in NOD/SCID mouse assessed as tumour growth inhibition; format: functional, cell-based
MOLM-13 [13] = assay: Potency index, ratio of quizartinib IC50 to test compound IC50 for human MOLM13 cells harboring FLT3-ITD mutant; format: functional

Structure (SMILES)	IC50 [1]	Tmax [2]	half-life [3]	CL/F [4]	bioavailability [5]	IC50 (RS4-11)	IC50 (HL-60)	IC50 (MV4-11 [6])	IC50 (MOLM-13 [7])	IC50 (BaF3 [8])	IC50 (BaF3 [9])	IC50 (BaF3 [10])	TGI (MV4-11 [11])	TGI (MOLM-13 [12])	Ratio IC50 (MOLM-13 [13])
CC(C)(C)c1cc(NC(=O)Nc2ccc(-c3c[nH]c4ncnc(N)c34)cc2F)no1	4 nM	0.88 h	2.54 h	56.3 mL/min/kg	25.6%	> 1000 nM	> 1000 nM	0.131 nM	0.007 nM	0.25 nM	10.7 nM	18 nM			
CC(C)(C)c1cc(NC(=O)Nc2ccc(-c3cn(CCCN4CCOCC4)c4ncnc(N)c34)cc2)no1	9 nM					> 1000 nM	> 1000 nM	0.069 nM	0.193 nM	0.99 nM	32.1 nM	61.8 nM	inactive	inactive	
C#CCn1cc(-c2ccc(NC(=O)Nc3cc(C(C)(C)C)on3)cc2)c2c(N)ncnc21	13 nM	0.83 h	2.78 h	28.3 mL/min/kg	40%	> 1000 nM	> 1000 nM	0.602 nM	0.262 nM	1.66 nM	13.9 nM	21.1 nM			
CC(C)n1cc(-c2ccc(NC(=O)Nc3cc(C(C)(C)C)on3)cc2)c2c(N)ncnc21	20 nM	0.5 h	4.22 h	255 mL/min/kg	12.1%	> 1000 nM	> 1000 nM	0.1 nM	0.971 nM	5.3 nM	12.6 nM	12.2 nM			
CC(C)(C)c1cc(NC(=O)Nc2ccc(-c3cn(CCCCO)c4ncnc(N)c34)cc2)no1	16 nM	0.31 h	2.77 h	801 mL/min/kg	9.8%	> 1000 nM	> 1000 nM	0.876 nM	0.14 nM	1.73 nM	13.6 nM	14.7 nM			
CC(C)(C)c1cc(NC(=O)Nc2ccc(-c3cn(CC#N)c4ncnc(N)c34)cc2)no1	9 nM	0.44 h	3.7 h	153 mL/min/kg	11.2%	> 1000 nM	> 1000 nM	0.032 nM	0.038 nM	0.97 nM	3.61 nM	9.17 nM			
CC(C)(C)c1cc(NC(=O)Nc2ccc(-c3c[nH]c4ncnc(N)c34)cc2)no1	6 nM	0.28 h	6.22 h	14.8 mL/min/kg	22.5%	> 1000 nM	> 1000 nM	0.043 nM	< 0.001 nM	0.16 nM	2.35 nM	4.83 nM	inactive	inactive	>100
CC(C)(C)c1cc(NC(=O)Nc2ccc(-c3cn(CCN4CCOCC4)c4ncnc(N)c34)cc2)no1	20 nM					> 1000 nM	> 1000 nM	0.329 nM	1.15 nM	1.07 nM	34.8 nM	52.4 nM	inactive	inactive	
CC(C)(C)c1cc(NC(=O)Nc2ccc(-c3cn(CCC#N)c4ncnc(N)c34)cc2F)no1	22 nM					> 1000 nM	> 1000 nM	2.21 nM	2.33 nM	4.26 nM	31.5 nM	112 nM			
COCCn1cc(-c2ccc(NC(=O)Nc3cc(C(C)(C)C)on3)cc2)c2c(N)ncnc21	21 nM					> 1000 nM	> 1000 nM	0.149 nM	0.049 nM	0.95 nM	28.6 nM	50.1 nM			
CC(C)(C)c1cc(NC(=O)Nc2ccc(-c3cn(Cc4ccccc4)c4ncnc(N)c34)cc2)no1	86 nM					> 1000 nM	> 1000 nM	1.76 nM	2.5 nM	8.45 nM	134 nM	95.4 nM			
C#CCn1cc(-c2ccc(NC(=O)Nc3cc(C(C)(C)C)on3)c(F)c2)c2c(N)ncnc21	46 nM					> 1000 nM	> 1000 nM	0.434 nM	0.389 nM	2.48 nM	16.1 nM	102 nM			
CC#CCn1cc(-c2ccc(NC(=O)Nc3cc(C(C)(C)C)on3)cc2)c2c(N)ncnc21	26 nM					> 1000 nM	> 1000 nM	3.92 nM	1.15 nM	6.18 nM	51.2 nM	86.4 nM			

— ChEMBL document CHEMBL4385604, “Identification of Pyrrolo[2,3- d]pyrimidine-Based Derivatives as Potent and Orally Effective Fms-like Tyrosine Receptor Kinase 3 (FLT3) Inhibitors for Treating Acute Myelogenous Leukemia” (J Med Chem, 2019)
